In brackets after ≈: the same amount, converted by molar mass. Values belong to the molecule of their own block, whether it stands above or below them. Activity calls are given as the source filed them. The calls are words filed in the database; no cut-off is given here.
How the values were obtained:
Acinetobacter baumannii [1] = test: Antimicrobial activity against Acinetobacter baumannii isolate I expressing beta-lactamase OXA-58 isolated from tracheal secretion of patient in presence of Sulbactam by vitek 2 system
Acinetobacter baumannii [2] = test: Antimicrobial activity against Acinetobacter baumannii isolate H expressing beta-lactamase OXA-58 isolated from tracheal secretion of patient in presence of Sulbactam by vitek 2 system
Acinetobacter baumannii [3] = test: Antimicrobial activity against Acinetobacter baumannii isolate A expressing beta-lactamase OXA-164 isolated from tracheal secretion of patient in presence of Sulbactam by vitek 2 system
Acinetobacter baumannii [4] = test: Antimicrobial activity against Acinetobacter baumannii isolate L expressing beta-lactamase OXA-58 isolated from tracheal secretion of patient in presence of Sulbactam by vitek 2 system
Acinetobacter baumannii [5] = test: Antimicrobial activity against Acinetobacter baumannii isolate F expressing beta-lactamase OXA-164 isolated from tracheostoma of patient in presence of Sulbactam by vitek 2 system
Acinetobacter baumannii [6] = test: Antimicrobial activity against Acinetobacter baumannii isolate D expressing beta-lactamase OXA-164 isolated from tracheal secretion of patient in presence of Sulbactam by vitek 2 system
Acinetobacter baumannii [7] = test: Antimicrobial activity against Acinetobacter baumannii isolate G expressing beta-lactamase OXA-58 isolated from tracheal secretion of patient in presence of Sulbactam by vitek 2 system
Acinetobacter baumannii [8] = test: Antimicrobial activity against Acinetobacter baumannii isolate C expressing beta-lactamase OXA-164 isolated from tracheal secretion of patient in presence of Sulbactam by vitek 2 system
Acinetobacter baumannii [9] = test: Antimicrobial activity against Acinetobacter baumannii isolate J expressing beta-lactamase OXA-58 isolated from bedsore in presence of Sulbactam by vitek 2 system
Acinetobacter baumannii [10] = test: Antimicrobial activity against Acinetobacter baumannii isolate E expressing beta-lactamase OXA-164 isolated from tracheal secretion of patient in presence of Sulbactam by vitek 2 system
Acinetobacter baumannii [11] = test: Antimicrobial activity against Acinetobacter baumannii isolate B expressing beta-lactamase OXA-164 isolated from tracheal secretion of patient in presence of Sulbactam by vitek 2 system
Acinetobacter baumannii [12] = test: Antimicrobial activity against Acinetobacter baumannii isolate K expressing beta-lactamase OXA-58 isolated from blood culture of patient in presence of Sulbactam by vitek 2 system
Acinetobacter baumannii [13] = test: Antimicrobial activity against Acinetobacter baumannii isolate M expressing beta-lactamase OXA-58 isolated from tracheal secretion of patient in presence of Sulbactam by vitek 2 system
Acinetobacter baumannii [14] = test: Antimicrobial activity against Acinetobacter baumannii isolate I expressing beta-lactamase OXA-58 isolated from tracheal secretion of patient by Etest
Acinetobacter baumannii [15] = test: Antimicrobial activity against Acinetobacter baumannii isolate E expressing beta-lactamase OXA-164 isolated from tracheal secretion of patient by vitek 2 system
Acinetobacter baumannii [16] = test: Antimicrobial activity against Acinetobacter baumannii isolate D expressing beta-lactamase OXA-164 isolated from tracheal secretion of patient by Etest
Acinetobacter baumannii [17] = test: Antimicrobial activity against Acinetobacter baumannii ATCC 17978 harboring beta-lactamase OXA-58 by Etest; format: functional
Acinetobacter baumannii [18] = test: Antimicrobial activity against Acinetobacter baumannii isolate G expressing beta-lactamase OXA-58 isolated from tracheal secretion of patient by vitek 2 system
Acinetobacter baumannii [19] = test: Antimicrobial activity against Acinetobacter baumannii isolate E expressing beta-lactamase OXA-164 isolated from tracheal secretion of patient by Etest
Acinetobacter baumannii [20] = test: Antimicrobial activity against Acinetobacter baumannii ATCC 19606 harboring beta-lactamase OXA-58 by Etest; format: functional; details: ATCC 19606 = CIP 70.34 = JCM 6841
Acinetobacter baumannii [21] = test: Antimicrobial activity against Acinetobacter baumannii isolate A expressing beta-lactamase OXA-164 isolated from tracheal secretion of patient by vitek 2 system
Acinetobacter baumannii [22] = test: Antimicrobial activity against Acinetobacter baumannii isolate K expressing beta-lactamase OXA-58 isolated from blood culture of patient by Etest
Acinetobacter baumannii [23] = test: Antimicrobial activity against Acinetobacter baumannii ATCC 17978 harboring plasmid WH1266 by Etest; format: functional
Acinetobacter baumannii [24] = test: Antimicrobial activity against Acinetobacter baumannii isolate K expressing beta-lactamase OXA-58 isolated from blood culture of patient by vitek 2 system
Acinetobacter baumannii [25] = test: Antimicrobial activity against Acinetobacter baumannii isolate A expressing beta-lactamase OXA-164 isolated from tracheal secretion of patient by Etest
Acinetobacter baumannii [26] = test: Antimicrobial activity against Acinetobacter baumannii isolate H expressing beta-lactamase OXA-58 isolated from tracheal secretion of patient by Etest
Acinetobacter baumannii [27] = test: Antimicrobial activity against Acinetobacter baumannii isolate F expressing beta-lactamase OXA-164 isolated from tracheostoma of patient by Etest
Acinetobacter baumannii [28] = test: Antimicrobial activity against Acinetobacter baumannii isolate J expressing beta-lactamase OXA-58 isolated from bedsore by vitek 2 system
Acinetobacter baumannii [29] = test: Antimicrobial activity against Acinetobacter baumannii isolate H expressing beta-lactamase OXA-58 isolated from tracheal secretion of patient by vitek 2 system
Acinetobacter baumannii [30] = test: Antimicrobial activity against Acinetobacter baumannii isolate C expressing beta-lactamase OXA-164 isolated from tracheal secretion of patient by vitek 2 system
Acinetobacter baumannii [31] = test: Antimicrobial activity against Acinetobacter baumannii isolate J expressing beta-lactamase OXA-58 isolated from bedsore by Etest
Escherichia coli [32] = test: Antimicrobial activity against Escherichia coli NEB 5-alpha harboring plasmid WH1266 by Etest; format: functional
Acinetobacter baumannii [33] = test: Antimicrobial activity against Acinetobacter baumannii isolate B expressing beta-lactamase OXA-164 isolated from tracheal secretion of patient by vitek 2 system
Acinetobacter baumannii [34] = test: Antimicrobial activity against Acinetobacter baumannii isolate M expressing beta-lactamase OXA-58 isolated from tracheal secretion of patient by vitek 2 system
Acinetobacter baumannii [35] = test: Antimicrobial activity against Acinetobacter baumannii isolate B expressing beta-lactamase OXA-164 isolated from tracheal secretion of patient by Etest
Escherichia coli [36] = test: Antimicrobial activity against Escherichia coli NEB 5-alpha harboring beta-lactamase OXA-164 by Etest; format: functional
Acinetobacter baumannii [37] = test: Antimicrobial activity against Acinetobacter baumannii ATCC 17978 harboring beta-lactamase OXA-164 by Etest; format: functional
Acinetobacter baumannii [38] = test: Antimicrobial activity against Acinetobacter baumannii isolate L expressing beta-lactamase OXA-58 isolated from tracheal secretion of patient by Etest
Acinetobacter baumannii [39] = test: Antimicrobial activity against Acinetobacter baumannii isolate G expressing beta-lactamase OXA-58 isolated from tracheal secretion of patient by Etest
Acinetobacter baumannii [40] = test: Antimicrobial activity against Acinetobacter baumannii ATCC 19606 harboring plasmid WH1266 by Etest; format: functional; details: ATCC 19606 = CIP 70.34 = JCM 6841
Acinetobacter baumannii [41] = test: Antimicrobial activity against Acinetobacter baumannii isolate I expressing beta-lactamase OXA-58 isolated from tracheal secretion of patient by vitek 2 system
Acinetobacter baumannii [42] = test: Antimicrobial activity against Acinetobacter baumannii isolate L expressing beta-lactamase OXA-58 isolated from tracheal secretion of patient by vitek 2 system
Acinetobacter baumannii [43] = test: Antimicrobial activity against Acinetobacter baumannii ATCC 19606 harboring beta-lactamase OXA-164 by Etest; format: functional; details: ATCC 19606 = CIP 70.34 = JCM 6841
Acinetobacter baumannii [44] = test: Antimicrobial activity against Acinetobacter baumannii isolate F expressing beta-lactamase OXA-164 isolated from tracheostoma of patient by vitek 2 system
Acinetobacter baumannii [45] = test: Antimicrobial activity against Acinetobacter baumannii isolate M expressing beta-lactamase OXA-58 isolated from tracheal secretion of patient by Etest
Escherichia coli [46] = test: Antimicrobial activity against Escherichia coli NEB 5-alpha harboring beta-lactamase OXA-58 by Etest; format: functional
Acinetobacter baumannii [47] = test: Antimicrobial activity against Acinetobacter baumannii by vitek 2 system
Acinetobacter baumannii [48] = test: Antimicrobial activity against Acinetobacter baumannii isolate C expressing beta-lactamase OXA-164 isolated from tracheal secretion of patient by Etest
Acinetobacter baumannii [49] = test: Antimicrobial activity against Acinetobacter baumannii isolate D expressing beta-lactamase OXA-164 isolated from tracheal secretion of patient by vitek 2 system

MIC (Acinetobacter baumannii [1]): inactive
MIC (Acinetobacter baumannii [2]): inactive
MIC (Acinetobacter baumannii [3]): inactive
MIC (Acinetobacter baumannii [4]): inactive
MIC (Acinetobacter baumannii [5]): inactive
MIC (Acinetobacter baumannii [6]): inactive
MIC (Acinetobacter baumannii [7]): inactive
MIC (Acinetobacter baumannii [8]): inactive
MIC (Acinetobacter baumannii [9]): inactive
MIC (Acinetobacter baumannii [10]): inactive
MIC (Acinetobacter baumannii [11]): inactive
MIC (Acinetobacter baumannii [12]): inactive
MIC (Acinetobacter baumannii [13]): inactive
Structure (SMILES): CC1(C)S[C@@H]2[C@H](NC(=O)[C@H](N)c3ccccc3)C(=O)N2[C@H]1C(=O)O

Structure (SMILES): C[C@@H](O)[C@H]1C(=O)N2C(C(=O)O)=C(SCCNC=N)C[C@H]12 [IMIPENEM ANHYDROUS]
MIC (Acinetobacter baumannii [14]): ≥ 64 mg/L
MIC (Acinetobacter baumannii [15]): ≥ 16 mg/L
MIC (Acinetobacter baumannii [16]): 32 mg/L (≈ 107 µM)
MIC (Acinetobacter baumannii [17]): > 32 mg/L
MIC (Acinetobacter baumannii [18]): ≥ 16 mg/L
MIC (Acinetobacter baumannii [19]): 32 mg/L (≈ 107 µM)
MIC (Acinetobacter baumannii [20]): > 32 mg/L
MIC (Acinetobacter baumannii [21]): 8 mg/L (≈ 26.7 µM)
MIC (Acinetobacter baumannii [22]): ≥ 64 mg/L
MIC (Acinetobacter baumannii [23]): 0.25 mg/L (≈ 0.835 µM)
MIC (Acinetobacter baumannii [24]): ≥ 16 mg/L
MIC (Acinetobacter baumannii [25]): 32 mg/L (≈ 107 µM)
MIC (Acinetobacter baumannii [26]): ≥ 64 mg/L
MIC (Acinetobacter baumannii [27]): 32 mg/L (≈ 107 µM)
MIC (Acinetobacter baumannii [28]): ≥ 16 mg/L
MIC (Acinetobacter baumannii [29]): ≥ 16 mg/L
MIC (Acinetobacter baumannii [30]): ≥ 16 mg/L
MIC (Acinetobacter baumannii [31]): ≥ 64 mg/L
MIC (Escherichia coli [32]): 0.19 mg/L (≈ 0.635 µM)
MIC (Acinetobacter baumannii [33]): ≥ 16 mg/L
MIC (Acinetobacter baumannii [34]): ≥ 16 mg/L
MIC (Acinetobacter baumannii [35]): 32 mg/L (≈ 107 µM)
MIC (Escherichia coli [36]): 0.25 mg/L (≈ 0.835 µM)
MIC (Acinetobacter baumannii [37]): > 32 mg/L
MIC (Acinetobacter baumannii [38]): ≥ 64 mg/L
MIC (Acinetobacter baumannii [39]): ≥ 64 mg/L
MIC (Acinetobacter baumannii [40]): 0.125 mg/L (≈ 0.418 µM)
MIC (Acinetobacter baumannii [41]): ≥ 16 mg/L
MIC (Acinetobacter baumannii [42]): ≥ 16 mg/L
MIC (Acinetobacter baumannii [43]): > 32 mg/L
MIC (Acinetobacter baumannii [44]): ≥ 16 mg/L
MIC (Acinetobacter baumannii [45]): ≥ 64 mg/L
MIC (Escherichia coli [46]): 0.5 mg/L (≈ 1.67 µM)
MIC (Acinetobacter baumannii [47]): 8 mg/L (≈ 26.7 µM)
MIC (Acinetobacter baumannii [48]): 32 mg/L (≈ 107 µM)
MIC (Acinetobacter baumannii [49]): ≥ 16 mg/L

— ChEMBL document CHEMBL1687815, “In vivo selection of a missense mutation in adeR and conversion of the novel blaOXA-164 gene into blaOXA-58 in carbapenem-resistant Acinetobacter baumannii isolates from a hospitalized patient” (2010)
